Test results from patent publication US12624022B2, “Heterocyclic immunomodulators as PDL1 checkpoint inhibitor” (Janssen Sciences Ireland Unlimited Company, priority 2019, dated 2026).

Assays:
[1] = across the 27 clinical trials analyzed (Tie Y et al., 2016); cited from earlier work
PD-1/PD-L1 = PD-1/PD-L1 (Homo sapiens, UniProt Q9NZQ7); assay: PD-1/PD-L1 biochemical protein-protein interaction assay (ALPHA); format: binding; settings: Table 1a; 5 nM His tagged PD-L1, 5 nM biotinylated PD-1, 2 hours at 25° C.; read-out: ALPHA-LISA IC50
Sequence of PD-1/PD-L1 (Q9NZQ7 19-238 limits assumed): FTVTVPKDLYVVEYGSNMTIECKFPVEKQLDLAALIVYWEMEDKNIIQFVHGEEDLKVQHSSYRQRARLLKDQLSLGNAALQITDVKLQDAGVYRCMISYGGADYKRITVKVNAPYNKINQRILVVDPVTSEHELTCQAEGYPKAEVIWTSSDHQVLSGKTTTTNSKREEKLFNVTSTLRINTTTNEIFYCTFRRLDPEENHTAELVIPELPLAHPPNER
Procedure: Compounds were tested in protein-protein interaction assay to determine if they can specifically block the interaction between the extracellular domains of PD-1/PD-L1. Binding of the protein pairs is measured using a bead based amplified luminescent proximity homogeneous assay (ALPHA) platform. Binding of each protein pair results in proximity of the donor and acceptor beads which leads to an increase in ALPHA signal. Assays are performed in 50 mM Tris (pH 7.4), 0.0015% Triton X-100, 0.1% BSA. Final protein concentration in the assays were 5 nM (His tagged PD-L1), 5 nM (biotinylated PD-1), 10 μg/ml ALPHA assay acceptor beads, 10 μg/ml ALPHA assay donor beads. After an assay reaction time of 2 hours at 25° C., binding was measured. The specificity of the binding was determined by testing the compounds in an assay with an irrelevant protein that is both His tagged and biotinylated. The final protein concentration used in the assay was 5 nM, 10 μg/ml ALPHA assay acceptor beads, 10 μg/ml ALPHA assay donor beads. After an assay reaction time of 2 hours at 25° C., binding was measured. IC50 values were calculated from the fit of the dose-response curves to a four-parameter equation.

| Compound | objective response rate (ORR) [1] [%] | IC50 (PD-1/PD-L1) [nM] |
| --- | --- | --- |
| Opdivo: Opdivo® (Nivolumab), given as example of PD-L1/PD-1 antagonist therapy validated in clinical trials | 26 | – |
| N#Cc1cccc(COc2cc(OCc3cccn(-c4ccc5c(c4)OCCO5)c3=O)c(Cl)cc2CN[C@H](CO)C(=O)O)c1 [Compound 202, (5-chloro-2-((3-cyanobenzyl)oxy)-4-((1-(2,3-dihydrobenzo[b][1,4]dioxin-6-yl)-2-oxo-1,2-dihydropyridin-3-yl)methoxy)benzyl)-D-serine] | – | 200 |
